Reference: ChEMBL document CHEMBL2321784, “Discovery of 5-benzyl-3-phenyl-4,5-dihydroisoxazoles and 5-benzyl-3-phenyl-1,4,2-dioxazoles as potent firefly luciferase inhibitors” (J Med Chem, 2013)
The source made the active and inactive calls. No cut-off for these calls is given here.

Columns and labels:
[1] = molecular target: Luciferin 4-monooxygenase (Photinus pyralis, UniProt P08659); assay: Inhibition of recombinant firefly luciferase after 20 mins by luminescence assay
[2] = molecular target: Luciferin 4-monooxygenase (Photinus pyralis) (UniProt P08659); assay: Inhibition of recombinant firefly luciferase at 1 nM after 20 mins by luminescence assay
[3] = molecular target: Luciferin 4-monooxygenase (Photinus pyralis) (UniProt P08659); assay: Inhibition of recombinant firefly luciferase at 10 uM after 20 mins by luminescence assay
[4] = molecular target: Luciferin 4-monooxygenase (Photinus pyralis) (UniProt P08659); assay: Noncovalent inhibition of recombinant firefly luciferase assessed as inhibition of enzyme-compound adduct formation at 10 uM after 5 mins by SDS-PAGE based liquid scintillation counting analysis; details: tested as the 14C-labelled form
[5] = molecular target: Luciferin 4-monooxygenase (Photinus pyralis) (UniProt P08659); assay: Inhibition of recombinant firefly luciferase activity expressed in U87 cells at 10 uM after 48 hrs; format: cell-based; details: U-87MG ATCC
[6] = molecular target: Luciferin 4-monooxygenase (Photinus pyralis) (UniProt P08659); assay: Noncompetitive inhibition of recombinant firefly luciferase using ATP as substrate at 1 to 100 nM after 30 mins by Michaelis-Menten plot analysis
[7] = molecular target: Luciferin 4-monooxygenase (Photinus pyralis) (UniProt P08659); assay: Noncompetitive inhibition of recombinant firefly luciferase using luciferin as substrate at 1 to 100 nM after 30 min by Michaelis-Menten plot analysis
[8] = molecular target: Luciferin 4-monooxygenase (Photinus pyralis) (UniProt P08659); assay: Inhibition of recombinant firefly luciferase activity expressed in U87 cells at 10 uM after 2 mins; format: cell-based; details: U-87MG ATCC

Chain of Luciferin 4-monooxygenase (P08659 whole entry): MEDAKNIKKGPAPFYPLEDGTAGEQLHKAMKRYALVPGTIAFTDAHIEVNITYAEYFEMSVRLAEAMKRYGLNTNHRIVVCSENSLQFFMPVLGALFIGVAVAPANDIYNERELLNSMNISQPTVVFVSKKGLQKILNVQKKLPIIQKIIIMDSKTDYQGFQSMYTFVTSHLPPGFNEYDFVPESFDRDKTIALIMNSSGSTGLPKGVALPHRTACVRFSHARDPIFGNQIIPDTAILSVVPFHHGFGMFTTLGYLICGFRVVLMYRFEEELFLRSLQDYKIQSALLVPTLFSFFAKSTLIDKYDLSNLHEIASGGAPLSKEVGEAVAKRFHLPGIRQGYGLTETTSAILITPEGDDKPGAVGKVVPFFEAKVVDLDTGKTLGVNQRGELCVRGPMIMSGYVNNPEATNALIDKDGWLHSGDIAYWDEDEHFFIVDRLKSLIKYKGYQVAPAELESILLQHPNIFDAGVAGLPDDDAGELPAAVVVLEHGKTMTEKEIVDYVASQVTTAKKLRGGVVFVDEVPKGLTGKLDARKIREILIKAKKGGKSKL
Chain of Luciferin 4-monooxygenase (Photinus pyralis) (P08659 whole entry): as above

IC50 [1] [nM] | inhibition [2] [%] | inhibition [3] [%] | SMILES | further results
1.82 | 46.5 | 98.8 | COc1ccc(C2=NO[C@H](Cc3ccccc3OC)C2)cc1 | 
 | 4.9 | 31.5 | c1ccc(C[C@H]2CC(c3ccc4ccccc4c3)=NO2)cc1 | pIC50 [1]: > 5
0.741 | 63.9 | 96.4 | O=[N+]([O-])c1ccc(C2=NOC(Cc3ccccc3)C2)cc1 (racemic) | 
 | 5.3 | 42.8 | Oc1ccc(C2=NO[C@@H](Cc3ccccc3)C2)cc1 | pIC50 [1]: > 5
0.398 | 65.9 | 99.4 | COc1cccc(C2=NO[C@H](Cc3ccccc3)C2)c1 | 
 |  |  | N#Cc1ccc(C2=NOC(Cc3ccccc3)C2)cc1 (racemic) | inhibition [4]: Active
316 | 13.1 | 93.3 | Oc1ccc(C2=NO[C@H](Cc3ccccc3)C2)cc1 | 
10.5 | 26.7 | 100 | COc1ccc(C2=NO[C@H](Cc3ccc(F)cc3)C2)cc1 | 
0.871 | 53 | 99.2 | Fc1ccc(C[C@@H]2CC(c3ccc(Cl)cc3)=NO2)cc1 | 
174 | 6.5 | 94.9 | c1ccc(C[C@H]2CC(c3ccccc3)=NO2)cc1 | 
331 | 14.7 | 88.3 | N#Cc1ccc(C2=NO[C@@H](Cc3ccccc3)C2)cc1 | 
0.309 | 76.8 | 99.5 | Fc1ccc(C2=NO[C@H](Cc3ccccc3)C2)cc1 | 
 | 5.5 | 41.5 | c1ccc(C[C@H]2CC(c3cccc4ccccc34)=NO2)cc1 | pIC50 [1]: > 5
0.933 | 50.7 | 99.8 | Clc1ccccc1C1=NOC(Cc2ccccc2)C1 (racemic) | 
2.82 | 38.8 | 98 | Fc1ccccc1C1=NOC(Cc2ccccc2)O1 (racemic) | 
5.25 | 42 | 98.6 | COc1ccc(C2=NO[C@@H](Cc3ccccc3)O2)cc1 | 
603 | 1.4 | 86.8 | Fc1ccc(C[C@H]2CC(c3ccc(Cl)cc3)=NO2)cc1 | 
2190 | 6.1 | 67.1 | COc1ccc(C2=NO[C@@H](Cc3ccccc3OC)C2)cc1 | 
15.1 | 26.1 | 94.8 | Clc1cccc(C2=NOC(Cc3ccccc3)C2)c1 (racemic) | 
417 | 17.7 | 88.3 | Clc1ccc(C2=NO[C@@H](Cc3ccccc3)C2)cc1 | 
 | 1.1 | 33.6 | COc1cccc(C[C@H]2CC(c3ccc(Cl)cc3)=NO2)c1 | pIC50 [1]: > 5

IC50 [1] [nM] | inhibition [2] [%] | inhibition [3] [%] | SMILES | further results
0.525 | 68.5 | 99.6 | Clc1ccccc1C1=NOC(Cc2ccccc2)O1 (racemic) | 
 | 4 | 25.5 | COc1ccc(C2=NO[C@@H](Cc3cccc(OC)c3)C2)cc1 | pIC50 [1]: > 5
2450 | 6.4 | 68 | COc1ccc(C2=NO[C@@H](Cc3ccccc3)C2)cc1 | 
 | 1 | 1.7 | COc1ccc(C[C@H]2CC(c3ccc(Cl)cc3)=NO2)cc1 | 
13.8 | 30.5 | 96 | COc1ccc(C2=NO[C@H](CCc3ccccc3)C2)cc1 | 
0.912 | 51.7 | 99.4 | COc1ccccc1C1=NO[C@H](Cc2ccccc2)C1 | 
 | 2.5 | 6.8 | COc1ccc(C2=NO[C@@H](CCc3ccccc3)C2)cc1 | 
6920 | 5.2 | 57.5 | COc1ccccc1C1=NO[C@@H](Cc2ccccc2)C1 | 
0.288 | 70.9 | 99.8 | COc1ccc(C2=NO[C@H](Cc3ccccc3)C2)cc1 | inhibition [5]: Active; inhibition [6]: Active; inhibition [7]: Active; inhibition [8]: Active
21.9 | 20.3 | 97.6 | COc1ccc(C2=NOC(C)(Cc3ccccc3)C2)cc1 (racemic) | 
 | 3.8 | 30.4 | COc1ccc(C[C@@H]2CC(c3ccc(Cl)cc3)=NO2)cc1 | pIC50 [1]: > 5
0.955 | 57.9 | 99.3 | Fc1ccccc1C1=NO[C@H](Cc2ccccc2)C1 | 
 | 0.4 | 0.7 | CC(C)c1ccc(C[C@@H]2CC(c3ccc(Cl)cc3)=NO2)cc1 | 
0.891 | 53.6 | 99.2 | N#Cc1ccc(C2=NO[C@H](Cc3ccccc3)C2)cc1 | 
 | 2 | 40.9 | Clc1ccc(C2=NO[C@H](Cc3cccc4ccccc34)C2)cc1 | pIC50 [1]: > 5
0.832 | 47 | 99.7 | Oc1cccc(C2=NO[C@H](Cc3ccccc3)C2)c1 | 
 | 6.8 | 99.6 | Oc1ccc(/C=C/c2cc(O)cc(O)c2)cc1 | 
 | 3.3 | 3.1 | COc1ccc(C[C@H]2CC(c3ccc(OC)cc3)=NO2)cc1 | 
4270 | 5 | 63.3 | COc1ccccc1C1=NO[C@@H](Cc2ccccc2)O1 | 
1.58 | 47.1 | 99.5 | c1ccc(C[C@@H]2CC(c3ccccc3)=NO2)cc1 | 
1950 | 9.6 | 75.3 | COc1cccc(C2=NO[C@@H](Cc3ccccc3)C2)c1 | 

IC50 [1] [nM] | inhibition [2] [%] | inhibition [3] [%] | SMILES | further results
741 | 7.7 | 85.6 | Fc1ccc(C2=NO[C@@H](Cc3ccccc3)C2)cc1 | 
1120 | 8.9 | 79.7 | Oc1ccccc1C1=NO[C@@H](Cc2ccccc2)C1 | 
1.17 | 43.8 | 98.7 | COc1ccc(C2=NO[C@H](Cc3cccc(OC)c3)C2)cc1 | 
2510 | 3 | 62.2 | c1ccc(C[C@@H]2CC(c3cccc4ccccc34)=NO2)cc1 | 
3240 | 1.5 | 64.2 | Clc1ccc(C2=NOC(CCc3ccccc3)C2)cc1 (racemic) | 
16.2 | 29.8 | 91.8 | COc1ccccc1CC1CC(c2ccc(Cl)cc2)=NO1 (racemic) | 
 | 0.9 | 2.2 | COc1ccc(CC2CC(c3ccc(Cl)cc3)=NO2)cc1OC (racemic) | 
 | 1.7 | 31.9 | CC(C)c1ccc(C[C@H]2CC(c3ccc(Cl)cc3)=NO2)cc1 | pIC50 [1]: > 5
 | 3.1 | 37.4 | COc1ccc(C[C@@H]2CC(c3ccc(OC)cc3)=NO2)cc1 | pIC50 [1]: > 5
1.95 | 48.1 | 98.4 | Oc1ccccc1C1=NO[C@H](Cc2ccccc2)C1 | 
 | 1.9 | 36.6 | Clc1ccc(C2=NO[C@@H](Cc3cccc4ccccc34)C2)cc1 | pIC50 [1]: > 5
 | -1.9 | 41.3 | COc1ccc(C2=NO[C@@H](Cc3ccc(F)cc3)C2)cc1 | pIC50 [1]: > 5
32.4 | 28.7 | 95.8 | CC1(Cc2ccccc2)CC(c2ccc(Cl)cc2)=NO1 (racemic) | 
2190 | 6.7 | 71.5 | Oc1cccc(C2=NO[C@@H](Cc3ccccc3)C2)c1 | 
17 | 20.6 | 96.7 | COc1cccc(C[C@@H]2CC(c3ccc(Cl)cc3)=NO2)c1 | 
1020 | 11.3 | 83 | Fc1ccccc1C1=NO[C@@H](Cc2ccccc2)C1 | 
0.955 | 56.1 | 99.5 | COc1ccc(C2=NO[C@H](Cc3ccccc3)O2)cc1 | 
2.14 | 48.3 | 98.2 | COc1ccccc1C1=NO[C@H](Cc2ccccc2)O1 | 
87.1 | 13.4 | 97 | c1ccc(C[C@@H]2CC(c3ccc4ccccc4c3)=NO2)cc1 | 

SMILES | IC50 [1] [nM] | inhibition [2] [%] | inhibition [3] [%] | further results
Fc1cccc(C2=NO[C@H](Cc3ccccc3)C2)c1 | 0.955 | 61.6 | 98.2 | 
Fc1cccc(C2=NO[C@@H](Cc3ccccc3)C2)c1 | 1000 | -3.7 | 84.1 | 
CCc1ccc(C[C@H]2CC(c3ccc(Cl)cc3)=NO2)cc1 | 8710 | 2.5 | 50.2 | 
CCc1ccc(C[C@@H]2CC(c3ccc(Cl)cc3)=NO2)cc1 |  | 6.3 | 29.4 | pIC50 [1]: > 5
